Values joined by “and” are separate entries in the source; they are usually repeats but may differ in a detail not shown here. Identical values can stand only once.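 Values below derive from 48-hour exposures of cells grown in 96-well plates, with endpoints linearly interpolated between the two concentrations bracketing the appropriate inhibition level. GI50 = concentration required for 50% inhibition of growth. TGI marks complete inhibition of growth.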
What was measured:
Experiment in all cases: NCI anticancer screen, dose series, 48 h
BT-549 breast = test system: BT-549 breast
NCI/ADR-RES ovarian = test system: NCI/ADR-RES ovarian
T-47D breast = test system: T-47D breast
MDA-MB-435 = test system: MDA-MB-435
DU-145 prostate = test system: DU-145 prostate
HOP-62 NSCLC = test system: HOP-62 NSCLC

SMILES | GI50 (BT-549 breast) | TGI (BT-549 breast) | GI50 (NCI/ADR-RES ovarian) | TGI (NCI/ADR-RES ovarian) | GI50 (T-47D breast) | TGI (T-47D breast) | GI50 (MDA-MB-435) | TGI (MDA-MB-435) | GI50 (DU-145 prostate) | TGI (DU-145 prostate) | GI50 (HOP-62 NSCLC) | TGI (HOP-62 NSCLC)
CC[C@H](CO)Nc1nc(NCc2ccccc2)n2ncc(C(C)C)c2n1 | 1.56 µM | 5.29 µM | 2.08 µM | 15.7 µM | 2.48 µM | 13.3 µM | 2.06 µM | 10.1 µM | 1.3 µM | 9.52 µM | 2.1 µM | 8.72 µM
Cc1ccc(S(=O)(=O)Nc2cccc3[nH]c(C(F)(F)F)nc23)cc1 | 0.62 µM | 52 µM | 0.412 µM | 42.9 µM | 0.492 µM | 57 µM | 0.204 µM | > 100 µM | 1.2 µM | > 39.9 µM | 1.21 µM | 41.8 µM
O=C(Nc1cccc(NC(=O)Nc2cc(C(F)(F)F)ccc2Cl)c1)Nc1cc(C(F)(F)F)ccc1Cl | 5.55 µM | 38.4 µM | 3.01 µM | 17.7 µM | 0.407 µM | 11.4 µM | 5.56 µM | > 100 µM | 4.11 µM | 17.8 µM | 1.35 µM | 4.01 µM
CS[C@]12C(=O)C[C@@]3(C)[C@@H](CC[C@]3(O)C(=O)CO)[C@@H]1CCC1=CC(=O)CC[C@@]12C | – | > 100 µM | – | > 100 µM | – | > 100 µM | – | > 100 µM | – | > 100 µM | – | > 100 µM
CC[N+]1(C)CCC(O)(c2ccc(Cl)c(Cl)c2)C(C(=O)c2ccc(Cl)c(Cl)c2)C1 (stereo not drawn) | – | > 10 µM | – | > 10 µM | – | > 10 µM | – | – | – | > 10 µM | – | > 10 µM
COc1ccc(/C=C2\S/C(=N/Nc3nc(-c4ccccc4)cs3)NC2=O)cc1OC | – | 81.3 µM | – | 49.8 µM | – | – | – | 75 µM | – | > 100 µM | – | > 100 µM
COc1ccc(C(=O)c2cc3c(N)c(C(=O)Nc4cccc5ccccc45)sc3nc2C)cc1 | 0.379 µM | > 50 µM | 0.181 µM | > 50 µM | 0.355 µM | > 50 µM | – | – | 0.19 µM | > 50 µM | 0.314 µM | > 50 µM
Cc1c2c(nn1C)CSCc1cc(n(C)n1)CSc1cc(c3ccccc3c1)OCCCc1c(C(=O)O)n(C)c3c-2c(Cl)ccc13 | 2.52 µM | 11.2 µM | 14.2 µM | 30 µM | 3.88 µM | 15.7 µM | 2.45 µM | 14.3 µM | 4.52 µM | 15.9 µM | 4.62 µM | 17.3 µM
C=C1C(=O)OC2C1C(OC(=O)/C(C)=C/C)CC(O)(CCl)C1C(O)C3OC3(C)C21O (stereo not drawn) | – | > 50 µM | – | > 50 µM | – | > 50 µM | – | > 50 µM | – | > 50 µM | – | > 50 µM
CCOc1cc2ncc(C#N)c(Nc3ccc(OCc4ccccn4)c(Cl)c3)c2cc1NC(=O)/C=C/CN(C)C | 1.97 µM and 0.921 µM | 22 µM and > 7.85 µM | 1.17 µM and 1.2 µM | 4.49 µM and > 8.87 µM | – | 29.7 µM and > 2.61 µM | 0.902 µM and 0.77 µM | 2.52 µM and 5.37 µM | 0.113 µM and 0.181 µM | 1.93 µM and 4.73 µM | 1.22 µM and 1.51 µM | 4.44 µM and > 7.81 µM
Cn1cc(C2=C(c3cccc(OCC(O)CO)c3)C(=O)NC2=O)c2ccccc21 (stereo not drawn) | > 25 µM | > 25 µM | > 25 µM | > 25 µM | > 25 µM | > 25 µM | > 19.1 µM | > 25 µM | > 25 µM | > 25 µM | > 25 µM | > 25 µM
COc1cc(/C=C2\Sc3scc(-c4cccc([N+](=O)[O-])c4)[n+]3C2=O)cc(OC)c1OC | – | – | – | > 100 µM | – | 25 µM | – | 25.2 µM | – | 30.2 µM | – | 36.1 µM
COc1cc(C(=O)NC2CCN(C)CC2)c(F)cc1Nc1ncc2c(n1)N(C1CCCC1)CC(F)(F)C(=O)N2C | 1.87 µM | 20 µM | < 0.0329 µM | 13.6 µM | < 0.0315 µM | 13 µM | – | – | 0.0179 µM | 11.2 µM | < 0.0141 µM | 13.2 µM
COc1ccc(/C=C2\CCCC3=C2NC(N)=NC3c2ccc(OC)c(OC)c2)cc1OC (stereo not drawn) | 3.62 µM | > 100 µM | 1.93 µM | > 100 µM | 6.61 µM | > 60.5 µM | 1.43 µM | > 100 µM | 4.98 µM | > 100 µM | 4.04 µM | > 66.9 µM
CC1=C(CO)C(=O)O[C@@H]([C@@H](C)[C@H]2CC[C@H]3[C@@H]4C[C@@H](O)[C@@]5(O)CC=CC(=O)[C@]5(C)[C@H]4CC[C@]23C)C1 | – | 93.8 µM | – | 64.2 µM | – | > 100 µM | – | > 100 µM | – | > 100 µM | – | > 100 µM
CCSCCCN(CCCSCC)CCCSCC | – | > 100 µM | – | > 100 µM | – | > 100 µM | – | > 100 µM | – | > 100 µM | – | > 100 µM

SMILES | GI50 (BT-549 breast) | TGI (BT-549 breast) | GI50 (NCI/ADR-RES ovarian) | TGI (NCI/ADR-RES ovarian) | GI50 (T-47D breast) | TGI (T-47D breast) | GI50 (MDA-MB-435) | TGI (MDA-MB-435) | GI50 (DU-145 prostate) | TGI (DU-145 prostate) | GI50 (HOP-62 NSCLC) | TGI (HOP-62 NSCLC)
COc1cc([C@H]2OC[C@H]3[C@@H]2CO[C@@H]3c2cc(OC)c3c(c2)OCO3)cc(OC)c1OC | – | > 100 µM | – | > 100 µM | – | > 100 µM | – | > 100 µM | – | > 100 µM | – | > 100 µM
CC1(C)[C@@H](OC(N)=O)[C@H]2O[C@H]2[C@]2(CO)[C@H]3CC[C@]4(C)[C@@H](c5ccc(=O)oc5)[C@@H](Cl)C[C@]4(O)C3=CC[C@@H]12 | 0.00695 µM | 0.0257 µM | 0.00672 µM | 0.0174 µM | 0.0076 µM | 0.0333 µM | 0.0101 µM | 0.0386 µM | 0.00509 µM | 0.0106 µM | 0.00432 µM | 0.00847 µM
C=C1C(=O)OC2/C=C(/C)C(OC(C)=O)CC(O)/C(C)=C\C(OC(=O)/C(C)=C\C)C12 (stereo not drawn) | – | > 100 µM | – | > 100 µM | – | > 100 µM | – | > 100 µM | – | > 100 µM | – | > 100 µM
CC1(C)C2C=CC1(C)C1(CC2)OCCO1 (stereo not drawn) | – | – | – | > 100 µM | – | > 100 µM | – | > 100 µM | – | > 100 µM | – | > 100 µM
O=C1c2ccccc2-c2c1c1ccccc1c(=O)n2CCN1CCOCC1 | > 100 µM | > 100 µM | > 100 µM | > 100 µM | > 100 µM | > 100 µM | > 100 µM | > 100 µM | > 100 µM | > 100 µM | > 100 µM | > 100 µM
COc1ccc(OC)c(-c2c(C#N)c(N)nc(N3CCOCC3)c2C#N)c1 | > 100 µM | > 100 µM | > 100 µM | > 100 µM | 45.1 µM | > 100 µM | > 100 µM | > 100 µM | > 100 µM | > 100 µM | 65.3 µM | > 100 µM
CCOc1ccccc1N=Nc1c(C)[nH]n(-c2nc(-c3ccccc3)cs2)c1=O | 29.2 µM | > 100 µM | 37.6 µM | > 100 µM | 30.1 µM | > 100 µM | > 100 µM | > 100 µM | 53.2 µM | > 100 µM | 35.1 µM | > 100 µM
C[CH2][Sn]([CH2]C)([O]C(=O)C(OC(C)=O)c1ccccc1)[O]C(=O)C(OC(C)=O)c1ccccc1 (stereo not drawn) | 16.1 µM | 29.7 µM | > 100 µM | > 100 µM | 12.9 µM | 28 µM | > 100 µM | > 100 µM | 94.7 µM | > 100 µM | > 100 µM | > 100 µM
O=C(NC[C@H](O)CO)c1ccncc1Nc1ccc(I)cc1F | > 10 µM and 23.3 µM | > 95 µM | > 10 µM and 35 µM | > 100 µM | > 10 µM and 19.3 µM | > 100 µM | 0.00907 µM and 0.0257 µM | > 100 µM | > 10 µM and 17.8 µM | > 100 µM | 0.0472 µM and 0.298 µM | > 94 µM
O=[N+]([O-])c1cccc([As]=[As]c2cccc([N+](=O)[O-])c2)c1 (stereo not drawn) | 0.0765 µM | 0.204 µM | 0.182 µM | 0.447 µM | 0.0358 µM | 0.164 µM | 0.122 µM | 0.271 µM | 0.163 µM | 0.309 µM | 0.159 µM | 0.301 µM
C/C=C(/C)C(=O)O[C@H](C[C@@H](C)[C@H]1CC(c2ccoc2)OC1=O)[C@@]1(C)C(=O)CCC2O[C@]21C (stereo partly drawn) | – | > 100 µM | – | > 100 µM | – | > 100 µM | – | > 100 µM | – | > 100 µM | – | –
Nc1ncnc2c1nnn2C1CCC(CP(=O)(O)O)C1 (stereo not drawn) | – | – | – | > 100 µM | – | > 100 µM | – | > 100 µM | – | > 100 µM | – | > 100 µM
CCCOC(=O)N1CCN(/[N+]([O-])=N/Oc2ccc([N+](=O)[O-])cc2[N+](=O)[O-])CC1 | 3.46 µM | 11.7 µM | 3.31 µM | > 100 µM | – | – | 0.366 µM | 12.2 µM | 1.81 µM | 3.53 µM | 2.58 µM | 6.4 µM
O=C(NN1C(=O)CSC12CCCC2)c1[nH]c2ccc(Br)cc2c1-c1ccccc1 | 93.5 µM | > 100 µM | – | – | 39.1 µM | > 100 µM | 23.4 µM | 63.7 µM | > 100 µM | > 100 µM | 62.5 µM | > 100 µM
COc1ccc2c(c1)C(=O)c1c-2c(N(C)C)nc2ccccc12 | > 100 µM | > 100 µM | > 100 µM | > 100 µM | > 100 µM | > 100 µM | – | – | > 100 µM | > 100 µM | > 100 µM | > 100 µM
